The conditions of data set [1]: in vivo; cited from earlier work.
For data set [2] the following is noted: mouse, in vivo; cited from earlier work.
Data set [3] in a line: Glucuronidation kinetics in pooled human liver microsomes (HPLC-UV). Particulars: human, pH 7.4. The protocol: (§1) Pooled human liver microsomes ( 20mg/mL ) and pooled human intestinal microsomes ( 20mg/mL ) were from BD Biosciences. We first placed the reaction mixtures for 30 min on ice and then incubated them for 5 min at 37°C. The addition of uridine 5'-diphospho-glucuronic acid (Sigma-Aldrich) to a final concentration of 5 mM started the reaction. For the enzyme reactions, we used a temperature of 37°C; the incubation times differed, subject to the BP and microsome type regarded (Table 1). We terminated the glucuronidation reactions with the addition of 10μL perchloric acid (Merck). In the following step, we put the samples on ice for 15 min, centrifuged at 16,000×g for 10 min, and analyzed the supernatants using HPLC-UV.
(§2) We conducted the HPLC-UV analysis on an Agilent 1,100 series HPLC system (Agilent Technologies). For this, we injected 10μL of each sample onto a Poroshell 120 EC-C18 column ( 4.6×100mm , 2.7μm , Agilent Technologies) maintained at 40°C. The mobile phases were 0.1% formic acid (A) and acetonitrile (B). The elution of different BPs consisted of a linear gradient (see Table 2). We further analyzed the results with the GraphPad Prism software (version 5.04; GraphPad Software Inc.,) and selected the most suitable kinetic model (Michaelis-Menten or substrate inhibition, Equations 3 and 4), based on the curve fitting and the shape of the Eadie-Hofstee plots (see Figure S2).
(§3) Michaelis-Menten equation: (3) v=vmax[S]/Km+[S]
(§4) Substrate inhibition equation: (4) v=vmax[S]/Km+[S](1+[S]/Ksi )

The test system of a further data set is human liver microsomes. The description is as above. As to conditions: for glucuronidation compared with the other analogs: at lower, physiologically relevant substrate concentrations, small intestine and liver (Figure 3B); for Hepatic glucuronidation vmax: in vitro value scaled with 32 mg protein/g liver, BPS: uncalibrated model. The protocol: as §1, §2, §3, §4

Data set [4] is described as follows: Glucuronidation kinetics in pooled human intestinal microsomes (HPLC-UV). Particulars: human, pooled human intestinal microsomes, pH 7.4. The protocol:
as §1, §2, §3, §4

For data set [5], the system named is human intestinal microsomes. The description is as above. Particulars: for Glucuronidation in enterocytes vmax - used in basic model: scaled with 4.29 mg protein/kg BW; for Glucuronidation in enterocytes Ksi: substrate-inhibition kinetics. The protocol: as §1, §2, §3, §4
A short description of data set [6]: Margin of exposure (MOE = EC50/Cmax) back-of-the-envelope calculation. Also noted: species or system human.
The test system of another data set is estrogen receptor. The arrangement: method as in Kitamura et al. 2005. As to conditions: ref Kitamura et al. 2005, cited from earlier work; for EC50: estrogenic potency.
The test system of another data set is estrogen receptors. Also noted: method as in Kitamura et al. 2005; Stossi et al. 2014. Particulars: ref Kitamura et al. 2005; Stossi et al. 2014; cited from earlier work.
For data set [7] the following is noted: cited from earlier work; for logPow: ref Choi and Lee 2017; for pKa: ref SPARC 2011.
On the set-up of data set [8]: method as in Dumont et al. 2011. As to conditions: third subject (oldest volunteer); ref Dumont et al. 2011; cited from earlier work.
Details of data set [9]: method as in Oh et al. (2018). Particulars: ref Oh et al. (2018); cited from earlier work.
[10] abbreviates: EC50 (Kitamura et al. 2005)/highest Cmax of basic PBPK model (Table 9).

Each structure is given as a SMILES string. Structures can show the parent of a compound that is named as a salt.

Take `CC(C)(c1ccc(O)cc1)c1ccc(O[C@@H]2O[C@H](C(=O)O)[C@@H](O)[C@H](O)[C@H]2O)cc1` [BPA-g, BPA glucuronide]: in data set [1], the “AUC, mean (range), measured” value is 6.66 (5.52–8.34) nM*h for 1.5 h and the Cmax is 6.48 nM.
For the compound `CC(C)(c1ccc(O)cc1)c1ccc(OS(=O)(=O)O)cc1` [BPA-s, BPA sulfate], in data set [1], the “AUC, mean (range), measured” value was 3.61 (2.60–4.52) nM*h for 1.5 h and the Cmax is 4.22 nM. The “share of metabolites present in plasma” value in [2] is given as 0.5–4.8%.
On to `Oc1ccc(C(c2ccc(O)cc2)(C(F)(F)F)C(F)(F)F)cc1` [BPAF, bisphenol AF], for which the Km in data set [3] (pooled human liver microsomes) was 4.21 µM. Also, in the data set with human liver microsomes, the “glucuronidation compared with the other analogs” value is given as “most effective” and the Hepatic glucuronidation vmax was 5,660 nmol/h/g liver. In addition, in the data set on human liver microsomes (substrate-inhibition kinetics), the “Hepatic glucuronidation Ksi” value is on record as 219,000 nM. Further, the Michaelis constant (Km) in data set [4] came out at 1.83 µM. In [5], the “Glucuronidation in enterocytes vmax - used in basic model” value (“Glucuronidation in enterocytes vmax” below) came out at 107 nmol/h/g bw and the “Glucuronidation in enterocytes Ksi” value was 82,200 nM. For the same compound, the “MOE in serum of females of childbearing age” value in data set [6] (2D-MC analysis, P95/P95) is 1,860. For the same compound, the MOE in gonads in data set [6] (setting [10]) was 1,810. In the data set with estrogen receptor (from EC50 values), the “estrogenic potency, times higher than BPA” value is 13 times. In addition, the “estrogenic potency, times higher than the potency of BPA” value in the data set on estrogen receptors is 7 to 13 times. Moreover, in data set [7], the logPow was 2.8 to 4.8 and the pKa is on record as ~9.2.
In the case of `Oc1ccc(Cc2ccc(O)cc2)cc1` [BPF, bisphenol F], the Km in [3] worked out at 17.9 µM; in [4], 57 µM. In the data set with human liver microsomes, the Hepatic glucuronidation vmax is 3,600 nmol/h/g liver. In addition, the “Glucuronidation in enterocytes vmax” value in data set [5] is given as 462 nmol/h/g bw. In data set [5], the “Glucuronidation in enterocytes Ksi” value was 605,000 nM. Also, the EC50 on estrogen receptor was 1000 nM. The pKa in [7] is on record as ~7.6.
For `O=S(=O)(O)Oc1ccc(Cc2ccc(O)cc2)cc1` [BPF-s], the “share as major metabolite” value in data set [8] is 75%.
Take `O=S(=O)(c1ccc(O)cc1)c1ccc(O)cc1` [BPS, bisphenol S]: the Km in data set [3] was 285 µM. Moreover, in the data set with human liver microsomes, the “glucuronidation compared with the other analogs” value is recorded as “least effective” and the Hepatic glucuronidation vmax is recorded as 26,500 nmol/h/g liver. For the same compound, the Km in data set [4] worked out at 354 µM. In data set [5], the “Glucuronidation in enterocytes vmax” value came to 563 nmol/h/g bw and the “Glucuronidation in enterocytes Ksi” value was 711,000 nM. Moreover, the MOE in serum in data set [6] (setting [10]) is 2,440. Besides, the EC50 at estrogen receptor is 1100 nM. Further, the “half-life, times longer than the half-life of BPA” value in [9] was 2.7 times. In data set [7], the logPow is recorded as 1.7–2.1 and the pKa is recorded as ~8.2.

As a reminder, the Cmax is the maximum level reached in the sampled fluid or tissue. For orientation: Km means the substrate concentration at which the rate is half of its maximum. By pKa is commonly meant the negative logarithm of the acid dissociation constant. A word on the EC50: it is the midpoint of the concentration-response curve.

(Values after PMC6108829 (Environmental Health Perspectives, 2018).)
